The values that follow come from patent US10154976B2, “System and method for delivering protease inhibitors” (Bordoloi Biotech, LLC, priority 2013, dated 2018).

Experiment [1] deals with T1, plasmin (Homo sapiens, UniProt P00747). As to the kind of experiment: Gravimetric fibrin clot degradation by plasmin, single 48 hour incubation. The format is biochemical. Further details: TA delays the conversion of plasminogen to plasmin; purchased Sigma P1867.
The target in experiment [2] is T1, plasmin. As to the kind of experiment: Gravimetric fibrin clot degradation in plasmin medium freshly exchanged every 24 hours.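 Note: fibrin clots formed from bovine fibrinogen and thrombin in 96-well plates, weighed each day after plasmin exposure, percent degradation relative to original clot weight, with PBS-only no-plasmin controls.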
Method: Also, a gravimetric in vitro method has been developed for a degradation study of a fibrin sealant in a plasmin medium at pH 7.4 and 37° C., where the medium has been freshly exchanged every twenty-four hours. Further investigation into the described degradation of fibrin sealant was undertaken for up to four consecutive days.
A preparation of fibrinogen solution was prepared as described herein: • 1. Prepared a 10 percent solution of fibrinogen by dissolving 1.4 gms of bovine fibrinogen (Sigma F8630) in 14 ml of PBS. The solution was incubated at 37° C. with occasional swirling for 1 hour or till fibrinogen is completely dissolved. • 2. Molecular weight of TA is 157 grams. Three and half millimolar (0.55 mg TA/ml) suspension of 5 percent and 30 percent TA/PLGA were prepared by dispersing 50 mg of 5 percent loaded TA/PLGA and 8.3 mg of 30 percent loaded TA/PLGA in 4.5 ml of 10 percent fibrinogen solution, respectively, Table 7. A 10 percent Fibrinogen solution without TA was used as the negative control.
Next, the fibrin clots in the ninety-six well plate were prepared as follows: • 1. Two and a half mg of Thrombin (600 units/mg) were dissolved in 1 ml of 375 mM CaCl2 solution in PBS (1500 U/ml). Seven microliters (10.5 U) were added to each well of the labeled 96 well plates. • 3. The fibrinogen solutions (with no TA/PLGA that is 0 percent, 5 percent loaded TA/PLGA and 30 percent loaded TA/PLGA) were mixed well and 100 microliter aliquots of 10 percent fibrinogen with or without TA/PLGA were added to the wells containing thrombin solution. […] The plates were incubated at 37° C. temperature for one hour. Final concentration of CaCl2 was 25 mM. The plate was stored at 4° C. overnight after the clot was formed.
Next, plasmin was added to the fibrin clots to begin the enzymatic degradation of the fibrin clots by plasmin as described herein: • 1. A 300× plasmin solution was prepared by dissolving 500 micrograms in 500 microliter PBS. A 2× stock was prepared by diluting 150 times in PBS and adding 100 microliters to each well of the 96 well plate. The final 1× concentration was 3.3 micrograms/ml in the solution. A no-plasmin PBS only control was used for each condition. • 2. Incubation was at 37° C. At every 24 hours, the 96 well plate was centrifuged at 1,000 rpm for five minutes at room temperature. The supernatant plasmin solutions were aspirated out from each well with micropipette leaving the clots at the bottom of the well. • 3. A set of fibrin clots for each condition each day were taken out for measuring their degradation by plasmin by weighing. Fresh 100 microliter of plasmin solution was added to the rest of the clots. Fibrin clots were removed for measuring their weights each day until the clots were completely degraded in the wells.
Data was collected as follows: • 1. The clots were picked up from the well with a pair of forceps and weighed. The percent degradation was calculated by 100−(Average wt of the plasmin treated clot/actual weight of the clot×100). • 2. The clots were placed on a glass slide and photographed.
The clot or sealant was exchanged with fresh plasmin solution of 3.3 micrograms/ml every 24 hours.
The clots were irrigated and exchanged with fresh plasmin solution of 3.3 micrograms/ml every 24 hours.
Another experiment deals with fibrin clot. As to the kind of experiment: Fibrin clot weight in a medium containing no plasmin (PBS only). Further details: species or system Bovine. The note with it: 3 percent Ca-TA but without any plasmin; by Day-3 and Day-4. As for the experimental part:
Incubated at 37 C. […] Repeated till the clots completely disappeared.

The mark [3] stands for this setting: TA 0.10 mM, plasmin 6.6 μg/ml, 37° C., 48 hours.
The mark [4] stands for this setting: TA 0.25 mM, plasmin 6.6 μg/ml, 37° C., 48 hours.
Where [5] appears, read: TA 0.50 mM, plasmin 6.6 μg/ml, 37° C., 48 hours.
Where [6] appears, read: TA 1.00 mM, plasmin 6.6 μg/ml, 37° C., 48 hours.
Where [7] appears, read: Day 0, 3 percent Ca-TA (169.5 mE, 30 mg/ml), no PLGA, plasmin 3.3 μg/ml exchanged every 24 hours, pH 7.4, 37° C.
Where [8] appears, read: Day 1, 3 percent Ca-TA, no PLGA, plasmin 3.3 μg/ml exchanged every 24 hours, pH 7.4, 37° C.
Setting [9] is: Day 2, 3 percent Ca-TA, no PLGA, plasmin 3.3 μg/ml exchanged every 24 hours, pH 7.4, 37° C.
The mark [10] stands for this setting: Day 3, 3 percent Ca-TA, no PLGA, plasmin 3.3 μg/ml exchanged every 24 hours, pH 7.4, 37° C.
Where [11] appears, read: Day 4, 3 percent Ca-TA, no PLGA, plasmin 3.3 μg/ml exchanged every 24 hours, pH 7.4, 37° C.
[12] abbreviates: Day 0, Aprotinin 1500 KIU without PLGA-2, plasmin 3.3 micrograms/ml fresh every 24 hours, 37 C.
The mark [13] stands for this setting: Day 1, Aprotinin 1500 KIU without PLGA-2, plasmin 3.3 micrograms/ml fresh every 24 hours, 37 C.
Where [14] appears, read: Day 2, Aprotinin 1500 KIU without PLGA-2, plasmin 3.3 micrograms/ml fresh every 24 hours, 37 C.
Setting [15] is: Day 3, Aprotinin 1500 KIU without PLGA-2, plasmin 3.3 micrograms/ml fresh every 24 hours, 37 C.
Where [16] appears, read: Day 4, Aprotinin 1500 KIU without PLGA-2, plasmin 3.3 micrograms/ml fresh every 24 hours, 37 C.

T1 sequence (P00747 97-580 limits assumed): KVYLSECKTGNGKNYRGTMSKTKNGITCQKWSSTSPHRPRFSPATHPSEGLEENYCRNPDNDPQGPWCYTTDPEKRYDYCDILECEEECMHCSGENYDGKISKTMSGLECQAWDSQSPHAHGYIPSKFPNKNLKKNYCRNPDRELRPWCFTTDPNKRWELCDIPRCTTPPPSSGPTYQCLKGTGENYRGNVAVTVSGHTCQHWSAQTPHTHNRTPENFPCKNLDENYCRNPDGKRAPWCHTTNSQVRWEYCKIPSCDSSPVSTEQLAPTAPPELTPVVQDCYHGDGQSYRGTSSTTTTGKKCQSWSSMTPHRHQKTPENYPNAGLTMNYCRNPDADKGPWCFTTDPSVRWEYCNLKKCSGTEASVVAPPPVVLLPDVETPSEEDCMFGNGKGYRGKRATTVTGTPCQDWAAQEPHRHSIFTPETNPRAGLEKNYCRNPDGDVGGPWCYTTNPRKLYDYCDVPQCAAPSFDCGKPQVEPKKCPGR
T1 sequence (P00747 581-810 limits assumed): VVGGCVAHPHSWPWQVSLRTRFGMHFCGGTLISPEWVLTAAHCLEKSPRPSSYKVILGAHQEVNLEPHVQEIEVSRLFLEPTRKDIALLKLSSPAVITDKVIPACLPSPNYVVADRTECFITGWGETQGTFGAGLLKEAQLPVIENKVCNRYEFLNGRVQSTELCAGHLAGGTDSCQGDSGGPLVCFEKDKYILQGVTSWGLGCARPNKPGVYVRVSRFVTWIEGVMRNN

`NC[C@H]1CC[C@H](C(=O)O)CC1` [TA, trans-4-aminomethyl-cyclohexane-1-carboxylic acid]: at plasmin [1] (setting [3]), the “Average Weight of fibrin clot” value stood at 95.3 mg; the “Fibrin clot weight, set A” value is listed as 96 mg; the “Fibrin clot weight, set B” value was found to be 99 mg; the “Fibrin clot weight, set C” value is 91 mg. The “Percentage Degradation” value on plasmin [1] (setting [3]) was 11.8%. On plasmin [1] (setting [4]), the “Average Weight of fibrin clot” value amounted to 98.0 mg; the “Fibrin clot weight, set A” value came out at 108 mg; the “Fibrin clot weight, set B” value is 104 mg; the “Fibrin clot weight, set C” value was found to be 82 mg. Moreover, the “Percentage Degradation” value on plasmin [1] (setting [4]) came to 9.3%. For the same molecule, at plasmin [1] (setting [5]), the “Average Weight of fibrin clot” value is on record as 105.3 mg; the “Fibrin clot weight, set A” value was 102 mg; the “Fibrin clot weight, set B” value turned out to be 106 mg; the “Fibrin clot weight, set C” value is reported as 108 mg. Moreover, at plasmin [1] (setting [5]), the “Percentage Degradation” value worked out at 2.5%. In addition, at plasmin [1] (setting [6]), the “Average Weight of fibrin clot” value came to 104.7 mg; the “Fibrin clot weight, set A” value came out at 100 mg; the “Fibrin clot weight, set B” value amounted to 108 mg; the “Fibrin clot weight, set C” value is given as 106 mg. For the same molecule, the “Percentage Degradation” value at plasmin [1] (setting [6]) was determined as 3.0%. For the same molecule, on plasmin [1] (TA concentration, plasmin 6.6 μg/ml, 37° C., 48 hours), the “concentration sufficient for maximum activity (resistance against fibrin clot degradation by plasmin)” value is given as 0.1 mM. Moreover, the “concentration sufficient for maximum activity, stated in ppm” value on plasmin [1] (plasmin 6.6 μg/ml, 37° C., 48 hours) is 157 ppm.

For `NCC1CCC(C(=O)[O-])CC1.NCC1CCC(C(=O)[O-])CC1.[Ca+2]` (stereo not drawn) [Ca-TA, Calcium Tranexamate], the “increase in volume or weight of clot, of its original weight” value at plasmin [2] (3 percent Ca-TA, plasmin solution, on Day-1 and Day-2) is on record as “more than 50%”. For the same molecule, the “Average Weight of fibrin clot” value at plasmin [2] (setting [7]) was 113.0 mg; at plasmin [2] (setting [8]), 179.7 mg; on plasmin [2] (setting [9]) it was 185.0 mg; on plasmin [2] (setting [10]) it was 123.3 mg; on plasmin [2] (setting [11]), 0.0 mg. Moreover, the “Fibrin clot weight, set A” value worked out at 113 mg on plasmin [2] (setting [7]); 175 mg on plasmin [2] (setting [8]); 172 mg at plasmin [2] (setting [9]); 130 mg at plasmin [2] (setting [10]); 0 mg at plasmin [2] (setting [11]). Further, the “Fibrin clot weight, set B” value on plasmin [2] (setting [7]) is on record as 113 mg; on plasmin [2] (setting [8]), 160 mg; at plasmin [2] (setting [9]), 174 mg; at plasmin [2] (setting [10]), 100 mg; at plasmin [2] (setting [11]), 0 mg. In addition, the “Fibrin clot weight, set C” value at plasmin [2] (setting [7]) was 113 mg; on plasmin [2] (setting [8]), 204 mg; on plasmin [2] (setting [9]), 209 mg; on plasmin [2] (setting [10]), 140 mg; on plasmin [2] (setting [11]), 0 mg. For the same molecule, the percent degradation on plasmin [2] (setting [7]) was determined as 0%; on plasmin [2] (setting [11]), 100%. The “concentration adequate to give a stable clot without any significant degradation” value on plasmin [1] (same manner as FIG. 5 with Ca-TA (FIG. 12)) is listed as “about 0.1 mE”. The “increase in volume or weight of clot” value in the experiment on fibrin clot is given as “more than 50%”.

For the molecule Aprotinin, on plasmin [2] (setting [12]), the “Average Weight of fibrin clot” value came to 109.13 mg; the “Fibrin clot weight, set A” value worked out at 109.30 mg; the “Fibrin clot weight, set B” value is recorded as 108.50 mg; the “Fibrin clot weight, set C” value is 109.60 mg. In addition, at plasmin [2] (setting [12]), the percent degradation stood at 0.00%. Also, on plasmin [2] (setting [13]), the “Average Weight of fibrin clot” value was 100.60 mg; the “Fibrin clot weight, set A” value is 100.20 mg; the “Fibrin clot weight, set B” value turned out to be 98.10 mg; the “Fibrin clot weight, set C” value is on record as 103.50 mg. The percent degradation on plasmin [2] (setting [13]) was determined as 7.82%. At plasmin [2] (setting [14]), the “Average Weight of fibrin clot” value is listed as 15.03 mg; the “Fibrin clot weight, set A” value was 14.60 mg; the “Fibrin clot weight, set B” value is listed as 13.80 mg; the “Fibrin clot weight, set C” value worked out at 16.70 mg. The molecule further registered a percent degradation at plasmin [2] (setting [14]) of 86.22%. On plasmin [2] (setting [15]), the “Average Weight of fibrin clot” value was 0.00 mg; the “Fibrin clot weight, set A” value came to 0.00 mg; the “Fibrin clot weight, set B” value is 0.00 mg; the “Fibrin clot weight, set C” value stood at 0.00 mg. The molecule further returned a percent degradation at plasmin [2] (setting [15]) of 100.00%. Further, at plasmin [2] (setting [16]), the “Average Weight of fibrin clot” value was determined as 0.00 mg; the “Fibrin clot weight, set A” value amounted to 0.00 mg; the “Fibrin clot weight, set B” value is 0.00 mg; the “Fibrin clot weight, set C” value is listed as 0.00 mg. The same molecule came in with a percent degradation at plasmin [2] (setting [16]) of 100.00%.
